Test results: US11931343B2 (ARCUS BIOSCIENCES, INC., priority 2018, dated 2024)

Target: T1, human CD73 (Homo sapiens, UniProt P21589)
T1 sequence (P21589 27-549): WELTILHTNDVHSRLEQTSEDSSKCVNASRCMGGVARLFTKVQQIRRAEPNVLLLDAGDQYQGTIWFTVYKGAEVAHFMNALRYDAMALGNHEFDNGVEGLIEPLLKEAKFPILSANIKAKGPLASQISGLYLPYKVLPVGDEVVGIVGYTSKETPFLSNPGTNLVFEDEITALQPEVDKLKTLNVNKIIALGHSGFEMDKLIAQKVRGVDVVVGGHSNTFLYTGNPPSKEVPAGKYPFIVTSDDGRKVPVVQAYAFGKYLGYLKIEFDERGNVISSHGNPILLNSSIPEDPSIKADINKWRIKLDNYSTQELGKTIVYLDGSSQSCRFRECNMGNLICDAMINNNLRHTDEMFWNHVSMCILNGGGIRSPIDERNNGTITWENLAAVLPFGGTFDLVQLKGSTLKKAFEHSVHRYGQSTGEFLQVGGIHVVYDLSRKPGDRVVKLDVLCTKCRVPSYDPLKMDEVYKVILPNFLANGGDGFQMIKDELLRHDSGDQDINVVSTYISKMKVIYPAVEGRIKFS
Experiment: Inhibition of Ecto-5′-nucleotidase (CD73) activity in CHO-CD73 cells, phosphate release from AMP
Assay type: cell-based
Conditions: CHO-K1 cells stably transfected with human CD73; 25 μM AMP; 50 minutes, 37° C.; read-out: Potency: CD73 IC50

Compound	IC50
N#Cc1ccc(Cn2nccc2-c2cc(F)c3nnn(-c4ccc5[nH]c(=O)[nH]c5c4)c3c2)c(CN2CCC2C(=O)O)c1 (stereo not shown) [Example 285]	> 1000 nM
N#Cc1ccc(Cn2nccc2-c2cc(F)c3nnn(-c4ccc5[nH]c(=O)[nH]c5c4)c3c2)c(CN2CCOCC2)c1 [Example 268]	> 1000 nM
Fc1cc(Cl)ccc1Cn1nccc1-c1cc(F)c2nnn(-c3ccc4cn[nH]c4c3)c2c1 [Example 76]	< 100 nM
N#Cc1ccc(Cn2nccc2-c2cc(Cl)c3nnn(-c4ccc5cn[nH]c5c4)c3c2)nc1 [Example 106]	100 to 1000 nM
COc1ccc(Cn2nccc2-c2cc3c(cn2)nnn3-c2ccc3[nH]c(=O)[nH]c3c2)c(F)c1 [Example 247]	100 to 1000 nM
Cc1nc(-c2ccnn2Cc2ccc(C#N)cc2)cc2c1nnn2-c1ccc2cn[nH]c2c1 [Example 169]	100 to 1000 nM
CC(c1ccc(Cl)cn1)n1nccc1-c1cc2c(cc1Cl)nnn2-c1ccc2cn[nH]c2c1 (stereo not shown) [Example 402]	100 to 1000 nM
Cc1nn(-c2ccc3cn[nH]c3c2)c2cc(-c3ccnn3Cc3ccc(C#N)cc3)[nH]c(=O)c12 [Example 358]	100 to 1000 nM
N#Cc1ccc(Cn2nccc2-c2ccc3nnn(-c4ccc5[nH]c(=O)[nH]c5c4)c3c2)nc1 [Example 204]	100 to 1000 nM
Fc1cc(Cl)ccc1Cn1nccc1-c1cc(Cl)c2nnn(-c3ccc4cn[nH]c4c3)c2c1 [Example 83]	< 100 nM
O=c1[nH]c2ccc(-n3nnc4cnc(-c5ccnn5-c5cccc(F)c5)cc43)cc2[nH]1 [Example 196]	> 1000 nM
Cc1ccc(Cn2nccc2-c2cc(Cl)c3nnn(-c4ccc5cn[nH]c5c4)c3c2)c(Cl)c1 [Example 89]	< 100 nM
O=c1[nH]c2ccc(-n3nnc4c(Cl)cc(-c5ccnn5Cc5ccc(Cl)c[n+]5[O-])cc43)cc2[nH]1 [Example 369]	100 to 1000 nM
O=c1[nH]c2ccc(-n3nnc4c(F)cc(-c5ccnn5Cc5ncccn5)cc43)cc2[nH]1 [Example 209]	> 1000 nM
C=CCNc1nn(-c2ccc3cn[nH]c3c2)c2cc(-c3ccnn3Cc3ccc(C#N)cc3)cnc12 [Example 417]	> 1000 nM
Fc1cnc(Cn2nccc2-c2cc(Cl)c3nnn(-c4ccc5cn[nH]c5c4)c3c2)c(Cl)c1 [Example 81]	100 to 1000 nM
Cc1ccc(Cn2nccc2-c2cc(Cl)c3nnn(-c4ccc5cn[nH]c5c4)c3c2)[n+]([O-])c1 [Example 381]	< 100 nM
N#Cc1ccc(Cn2nccc2-c2cnc3c(N)nn(-c4ccc5cn[nH]c5c4)c3c2)nc1 [Example 281]	100 to 1000 nM
CCc1ccc(Cn2nccc2-c2cc(Cl)c3nnn(-c4ccc5cn[nH]c5c4)c3c2)cc1 [Example 68]	< 100 nM
OC(Cn1nccc1-c1cc(F)c2nnn(-c3ccc4cn[nH]c4c3)c2c1)c1ccccc1 (stereo not shown) [Example 375]	> 1000 nM
Cc1ccc(Cn2nccc2-c2cc(Cl)c3nnn(-c4ccc5[nH]c(=O)[nH]c5c4)c3c2)c(Cl)c1 [Example 234]	100 to 1000 nM
CC(c1ccccc1)n1nccc1-c1cc(Cl)c2nnn(-c3ccc4cn[nH]c4c3)c2c1 (stereo not shown) [Example 70]	100 to 1000 nM

Compound	IC50
O=c1[nH]c2ccc(-n3nnc4c(Cl)cc(-c5ccnn5Cc5ccc(Cl)cc5Cl)cc43)cc2[nH]1 [Example 186]	100 to 1000 nM
Clc1cc(-c2ccnn2CC2CCCCO2)cc2c1nnn2-c1ccc2cn[nH]c2c1 (stereo not shown) [Example 94]	100 to 1000 nM
N#Cc1ccc(Cn2nccc2-c2cc(F)c3nnn(-c4ccc5[nH][nH]c(=O)c5c4)c3c2)cc1 [Example 343]	100 to 1000 nM
Cc1ccc(Cn2nccc2-c2cc(F)c3nnn(-c4ccc5cn[nH]c5c4)c3c2)nc1 [Example 86]	100 to 1000 nM
N#Cc1cccc(Cn2nccc2-c2ccc3nnn(-c4ccc5cn[nH]c5c4)c3c2)c1 [Example 48]	> 1000 nM
N#Cc1ccc(Cn2ncc(Cl)c2-c2ccc3nnn(-c4ccc5[nH]c(=O)[nH]c5c4)c3c2)cc1 [Example 323]	100 to 1000 nM
CC(O)c1cc(C#N)ccc1Cn1nccc1-c1cc(F)c2nnn(-c3ccc4[nH]c(=O)[nH]c4c3)c2c1 (stereo not shown) [Example 313]	100 to 1000 nM
N#Cc1ccc(Cn2nccc2-c2cnc3cnn(-c4ccc5cn[nH]c5c4)c3c2)cc1 [Example 152]	> 1000 nM
O=C(Cn1nccc1-c1cc(Cl)c2nnn(-c3ccc4cn[nH]c4c3)c2c1)N1CCCCC1 [Example 184]	> 1000 nM
COC(=O)Cn1nc(-c2ccc3[nH]c(=O)[nH]c3c2)c2cc(-c3ccnn3Cc3ccc(C#N)cc3)cnc21 [Example 325]	> 1000 nM
O=c1[nH]c2ccc(-n3nnc4c(Cl)cc(-c5ccnn5Cc5cc(F)ccc5F)cc43)cc2[nH]1 [Example 252]	> 1000 nM
CC(=O)c1cc(C#N)ccc1Cn1nccc1-c1cc(F)c2nnn(-c3ccc4[nH]c(=O)[nH]c4c3)c2c1 [Example 289]	100 to 1000 nM
Fc1cc(-c2ccnn2-c2ccc3[nH]ncc3c2)cc2c1nnn2-c1ccc2cn[nH]c2c1 [Example 394]	> 1000 nM
N#Cc1ccc(Cn2nccc2-c2ccc3cnc(-c4ccc5[nH]c(=O)[nH]c5c4)n3c2)c(F)c1 [Example 335]	> 1000 nM
Cn1nc(-c2ccc3cn[nH]c3c2)c2cc(-c3ccnn3Cc3ccc(C#N)cc3)c[n+]([O-])c21 [Example 361]	> 1000 nM
Cn1nc(-c2ccc3cn[nH]c3c2)c2cc(-c3ccnn3Cc3ccc(C#N)cc3)cnc21 [Example 341]	100 to 1000 nM
N#Cc1cccc(-n2nccc2-c2cc(F)c3nnn(-c4ccc5[nH]c(=O)[nH]c5c4)c3c2)c1 [Example 198]	> 1000 nM
FC(F)(F)c1ccc(Cn2nccc2-c2cc(Cl)c3nnn(-c4ccc5cn[nH]c5c4)c3c2)c(Cl)c1 [Example 110]	100 to 1000 nM
Clc1ccccc1Cn1nccc1-c1cc(Cl)c2nnn(-c3ccc4cn[nH]c4c3)c2c1 [Example 52]	< 100 nM
Cc1cnc(Cn2nccc2-c2cc(F)c3nnn(-c4ccc5cn[nH]c5c4)c3c2)c(F)c1 [Example 87]	> 1000 nM
N#Cc1ccc(Cn2nccc2-c2cc(Cl)c3nnn(-c4ccnc(N)c4)c3c2)nc1 [Example 145]	> 1000 nM
N#Cc1ccc(Cn2nccc2-c2cnc3c(C(F)(F)F)nn(-c4ccc5cn[nH]c5c4)c3c2)cc1 [Example 376]	> 1000 nM

Other lines, results leading:

IC50	Compound
> 1000 nM	N#Cc1ccc(Cn2nccc2-c2cnc3c(NCCO)nn(-c4ccc5cn[nH]c5c4)c3c2)cc1 [Example 420]
100 to 1000 nM	CC(c1ccc(C#N)cc1)n1nccc1-c1cc(Cl)c2nnn(-c3ccc4cn[nH]c4c3)c2c1 (stereo not shown) [Example 117]
100 to 1000 nM	Nc1nn(-c2ccc3cn[nH]c3c2)c2cc(-c3ccnn3Cc3ccc(Cl)cn3)cnc12 [Example 274]
100 to 1000 nM	N#Cc1ccc(Cn2nccc2-c2cc(C(F)(F)F)c3nnn(-c4ccc5cn[nH]c5c4)c3c2)cc1 [Example 123]
< 100 nM	FC(F)c1ccc(Cn2nccc2-c2cc(Cl)c3nnn(-c4ccc5cn[nH]c5c4)c3c2)cc1 [Example 63]
> 1000 nM	Clc1ccc(Cn2nccc2-c2cc3c(cn2)cnn3-c2ccc3cn[nH]c3c2)nc1 [Example 149]
100 to 1000 nM	COc1ccc(Cn2nccc2-c2cc(F)c3nnn(-c4ccc5[nH]c(=O)[nH]c5c4)c3c2)c(Cl)c1 [Example 246]
100 to 1000 nM	Clc1cc(-c2ccnn2CCc2ccccc2)cc2c1nnn2-c1ccc2cn[nH]c2c1 [Example 124]
100 to 1000 nM	N#Cc1ccc(Cn2nccc2-c2cc(C(F)(F)F)c3nnn(-c4ccc5cn[nH]c5c4)c3c2)nc1 [Example 125]
100 to 1000 nM	Cc1ccc(Cn2nccc2-c2cc(Cl)c3nnn(-c4ccc5cn[nH]c5c4)c3c2)nc1 [Example 84]
> 1000 nM	CC(C)(O)c1cc(C#N)ccc1Cn1nccc1-c1cc(F)c2nnn(-c3ccc4[nH]c(=O)[nH]c4c3)c2c1 [Example 312]
100 to 1000 nM	N#Cc1ccc(Cn2nccc2-c2cc(F)c3nnn(-c4ccc5[nH]c(=O)[nH]c5c4)c3c2)c(N2CCCC2=O)c1 [Example 232]
< 100 nM	Clc1ccc(Cn2nccc2-c2cc(Cl)c3nnn(-c4ccc5cn[nH]c5c4)c3c2)cc1 [Example 44]
> 1000 nM	COCc1ccc(Cn2nccc2-c2cc(F)c3nnn(-c4ccc5[nH]c(=O)[nH]c5c4)c3c2)cc1 [Example 220]
< 100 nM	Cc1ccc(Cn2nccc2-c2cc(Cl)c3nnn(-c4ccc5[nH]c(=O)[nH]c5c4)c3c2)c(F)c1 [Example 224]
> 1000 nM	O=c1[nH]c2ccc(-n3nnc4c(F)cc(-c5ccnn5Cc5cccc6cn[nH]c56)cc43)cc2[nH]1 [Example 242]
100 to 1000 nM	N#Cc1ccc(Cn2nccc2-c2cc(F)c3nnn(-c4ccc5[nH]c(=O)[nH]c5c4)c3c2)c(CNC2CCCC2)c1 [Example 286]
> 1000 nM	CC(O)c1ccc(Cn2nccc2-c2cc(F)c3nnn(-c4ccc5[nH]c(=O)[nH]c5c4)c3c2)cc1 (stereo not shown) [Example 182]
> 1000 nM	Fc1ccc(Cn2nccc2-c2cc(F)c3nnn(-c4ccc5nc[nH]c5c4)c3c2)nc1 [Example 172]
100 to 1000 nM	N#Cc1ccc(Cn2nccc2-c2cc(F)c3nnn(-c4ccc5[nH]c(=O)[nH]c5c4)c3c2)c(C(=O)O)c1 [Example 306]
> 1000 nM	N#Cc1ccc(Cn2nccc2-c2cc3c(c[n+]2[O-])nnn3-c2ccc3[nH]c(=O)[nH]c3c2)cc1 [Example 391]
< 100 nM	Fc1cc(Cn2nccc2-c2cc(Cl)c3nnn(-c4ccc5cn[nH]c5c4)c3c2)ccc1Cl [Example 82]
> 1000 nM	N#Cc1ccc(Cn2nccc2-c2cnc3c(NCC(O)CO)nn(-c4ccc5cn[nH]c5c4)c3c2)cc1 (stereo not shown) [Example 422]
